Key:
[1] = system: pRb; test: Phosphorylation of pRb in Rb-/- 3T3 cells; format: cell-based; settings: cells that lack cyclin D1-associated kinase activity, low serum
Excerpt: COS-7 cells were cotransfected with HA-tagged constructs encoding the nuclear receptor coactivators SRC-1, AIB-1 or p300 (Anzick et al., 1997; Chakravarti et al., 1996; Hanstein et al., 1996; Kamei et al., 1996; Onate et al., 1995) together with control plasmid, plasmids directing the synthesis of wild type cyclin D1 or D1 L254/255A mutant (D1-LALA). 12CA5 HA antibodies were used for immunoprecipitation of whole cell extracts prepared from these cells and co-immunoprecipitation of cyclin D1 (mutants) was examined by Western blot analysis using anti-cyclin D1 antibody. […] Precipitation with the anti-cyclin D1 antibody from the total lysate of the cells transfected with cyclin D1 and cyclin D1-LALA was similar. Binding of cyclin D1 and cyclin D1 L254/255A mutant to ER was then investigated. COS-7 cells were transfected with ER expression vector, cyclin D1 (mutant) and/or control plasmids. Monoclonal ER antibodies were used for immunoprecipitation of ER of whole cell extracts prepared from these cells and co-immunoprecipitation of cyclin D1 (mutant) was examined by Western blot analysis using monoclonal cyclin D1 antibodies. […] The activity of cyclin D1 and D1 L254/255A mutant in phosphorylation of pRb in Rb^−/− 3T3 cells was also investigated. […] Differentially phosphorylated species of pRb were detected by Western blotting using the polyclonal pRb antibody (C15, Santa Cruz).

[2] = target: T1, ER (Homo sapiens, UniProt P03372); test: Co-immunoprecipitation with ER from COS-7 cells; format: binding; design: expressed in transfected cells; host or cells: COS-7
T1 sequence (P03372 1-595): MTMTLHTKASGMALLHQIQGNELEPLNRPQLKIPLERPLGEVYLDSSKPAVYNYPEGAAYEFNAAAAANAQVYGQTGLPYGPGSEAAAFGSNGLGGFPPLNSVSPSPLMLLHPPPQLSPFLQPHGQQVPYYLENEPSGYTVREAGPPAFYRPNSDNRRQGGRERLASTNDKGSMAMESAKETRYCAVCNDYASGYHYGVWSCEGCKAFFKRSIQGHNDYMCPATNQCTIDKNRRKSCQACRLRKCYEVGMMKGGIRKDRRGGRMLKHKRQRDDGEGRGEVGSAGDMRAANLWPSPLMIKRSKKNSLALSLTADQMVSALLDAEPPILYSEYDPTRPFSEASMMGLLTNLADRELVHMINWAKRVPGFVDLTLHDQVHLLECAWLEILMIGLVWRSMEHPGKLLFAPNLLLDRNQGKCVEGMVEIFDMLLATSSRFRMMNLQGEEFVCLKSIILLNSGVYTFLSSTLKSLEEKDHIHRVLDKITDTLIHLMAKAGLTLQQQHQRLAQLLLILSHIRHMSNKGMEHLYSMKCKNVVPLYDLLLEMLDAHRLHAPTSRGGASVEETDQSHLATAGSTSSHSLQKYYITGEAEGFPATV
Excerpt: (§1) COS-7 cells were cotransfected with HA-tagged constructs encoding the nuclear receptor coactivators SRC-1, AIB-1 or p300 (Anzick et al., 1997; Chakravarti et al., 1996; Hanstein et al., 1996; Kamei et al., 1996; Onate et al., 1995) together with control plasmid, plasmids directing the synthesis of wild type cyclin D1 or D1 L254/255A mutant (D1-LALA). 12CA5 HA antibodies were used for immunoprecipitation of whole cell extracts prepared from these cells and co-immunoprecipitation of cyclin D1 (mutants) was examined by Western blot analysis using anti-cyclin D1 antibody. […] Precipitation with the anti-cyclin D1 antibody from the total lysate of the cells transfected with cyclin D1 and cyclin D1-LALA was similar. Binding of cyclin D1 and cyclin D1 L254/255A mutant to ER was then investigated. COS-7 cells were transfected with ER expression vector, cyclin D1 (mutant) and/or control plasmids. […] Differentially phosphorylated species of pRb were detected by Western blotting using the polyclonal pRb antibody (C15, Santa Cruz).
(§2) Cells were lysed in ELB containing 250 mM NaCl, 0.1% NP-40, 50 mM HEPES pH 7.0, 5 mM EDTA and protease inhibitors. […] After blocking with PBS containing 5% milk and 0.1% Tween-20, proteins were detected with monoclonal antibodies directed against cyclin D1 (DCS-6, Neomarkers) and peroxidase-conjugated goat anti-mouse IgG. […]

[3] = system: SRC family proteins (SRC-1, AIB-1); test: Co-immunoprecipitation with HA-tagged coactivators from COS-7 cells; format: binding; settings: absence of 17β-estradiol
Excerpt: as §1, §2

[4] = target: T1, ER; test: ER activation, ERE-reporter gene, in T47D cells; format: cell-based; design: T47D and MCF-7, which contain endogenous wild type ER; endogenous in cells; host or cells: MCF-7; T47D; settings: relative low levels of cyclin D1, 17β-estradiol enriched medium
Excerpt: The ER-containing T47D and MCF-7 breast cancer cells were maintained in 17β-estradiol enriched medium with 10%fetal calf serum after cotransfection with a cyclin D1 L254/255A mutant expression vector and an ERE-reporter gene for testing its effect on ER activation (left panel). ER transactivation in the absence of co-expression of the cyclin D1 mutant was set at 100%.
To get more insight in the role of cyclin D1 in ER transactivation in breast cancers with elevated levels of cyclin D1, we have tested the effect of the mutant cyclin D1 L254/255A on ER activation in two different breast cancer cell lines. This cyclin D1 mutant does bind to ER, but fails both to interact with SRC-1 as shown above and consequently fails to activate ER (FIG. 1B). Therefore, this mutant can act as a dominant negative in cyclin D1-mediated ER transactivation as it binds to ER and fails to recruit coactivators. We tested the effect of this cyclin D1 mutant on ER activation in two breast cancer cell lines, T47D and MCF-7, which contain endogenous wild type ER, but differ in their cyclin D1 protein levels (FIG. 6). […] In contrast, in MCF-7, which contain relative high levels of cyclin D1 (FIG. 6), the cyclin D1 mutant inhibited up to 50% of ER activity. Thus, this dominant negative cyclin D1 mutant preferentially interferes with ER activation in breast cancer cells that have high levels of cyclin D1 protein.

ability to bind ER [2]: unaffected
inhibition of ER activity [4]: slight inhibition
Substance: Cyclin D1-LALA: cyclin D1 mutant in which leucines 254 and 255 were mutated to alanines; dominant negative
ability to phosphorylate pRb [1]: unaffected
interaction with SRC family proteins [3]: did not interact

Reference: patent publication US7012128B2, “Interaction between cyclin D1 and steroid receptor co-activators and uses thereof in assays” (TopoTarget UK Limited, priority 1998, dated 2006)
